{"source": "paper PMC12156367", "about": "“Synthesis and Biological Evaluation of Seco-Coumarin/Furoxan Hybrids as Potent Anti-Tumor Agents to Overcome Multidrug Resistance via Multiple Mechanisms” (Molecules, 2025)", "key": {"MCF-7/ADR [1]": {"test_system": "MCF-7/ADR", "assay": "Lysosomal and mitochondrial NO levels (Lyso-NO, Mito-NO probes), MCF-7/ADR", "format": "cell-based, human", "procedure": "(§1) Lysosomal NO probes (Lyso-NO) and mitochondrial NO probes (Mito-NO), which are specifically used for detecting the nitric oxide levels in lysosomes and mitochondria, respectively, were provided by Professor Weili Zhao (Fudan University, China). Cells (MCF-7 or MCF-7/ADR) were plated in 6-well plates (2 × 10^5 cells/well). After overnight incubation, indicated concentrations of 9e were added to the cells for 4 h. Cells were first treated with 10 μM Lyso-NO or Mito-NO (15 min, 37 °C), then counterstained with Hoechst 33,342 nuclear dye (Beyotime, China; 10 min, 37 °C). Finally, the fluorescence intensity was measured under a fluorescence microscope (Olympus, Tokyo, Japan)."}, "MCF-7/ADR [2]": {"test_system": "MCF-7/ADR", "assay": "Antiproliferative activity of 9e after pre-treatment with inhibitors (MTT)", "format": "cell-based, human", "procedure": "Following harvest during logarithmic growth, cells were plated in 96-well culture plates at an initial density of 5000 cells per well. Incubate the plate overnight at 37 °C to allow the cells to adhere. Following the overnight incubation, introduce the compound at the predetermined concentration into each well, and then return the plate to the incubator for an additional 48 h culture period. After the 48 h treatment, carefully aspirate the drug-containing medium from each well. Subsequently, add 150 μL of 0.5 mg/mL MTT (Beyotime, China) solution to each well. Protect the plate from light and incubate it at 37 °C for 4 h to allow the formation of formazan crystals. Finally, add 150 μL of DMSO (Sinopharm, China) to each well and gently mix to ensure complete dissolution of the formazan crystals. The OD value at 570nm was measured using a microplate reader (Thermo Fisher, Waltham, MA, USA). Cell proliferation inhibition was determined using the following formula:Inhibition (%) = [(ODDMSO − ODcompd.)/(ODDMSO − ODblank)] × 100\nCarboxy-PTIO (NO scavenger), NAC (N-acetylcysteine), tariquidar (P-glycoprotein inhibitor), and Fer-1 (ferrostatin-1, ferroptosis inhibitor) were purchased from Beyotime. MCF-7/ADR (5000 cells/well) were plated in 96-well plates and cultured overnight. Then, the cells were pre-treated with specified concentrations of inhibitors for 1 h and incubated with 9e (10 or 20 nM) or DMSO (24 h, 37 °C). Experimental procedures were the same as the method for the in vitro antiproliferative assay."}, "LC3 in MCF-7/ADR": {"test_system": "LC3 in MCF-7/ADR", "assay": "LC3 immunofluorescence", "format": "cell-based, human", "details": "9e 10 nM, 24 hours", "procedure": "MCF-7/ADR (1 × 10^5 cells/dish) were seeded in confocal dishes and cultured overnight. After being treated with 9e (20 nM) for 24 h, cells were fixed with 4% paraformaldehyde (Servicebio, Wuhan, China) for 15 min at room temperature. Then, they were washed three times with PBS. Next, cells were blocked with a solution containing 3% BSA (Biofroxx, Einhausen, Germany) and 0.3% Triton X-100 (Beyotime, Shanghai, China) for 1 h at room temperature. The cells were incubated with the primary antibody, which was diluted in 3% BSA and 0.3% Triton X-100, overnight at 4 °C. After three washes with PBS, the cells were incubated with the fluorescent secondary antibody (Alexa Fluor 488 and Alexa Fluor 594, Bioss, Beijing, China) for 1 h at room temperature. Following another three washes with PBS, the cellular DNA was stained with Hoechst 33,342 dye (10 min, 37 °C)."}, "MCF-7": {"test_system": "MCF-7", "assay": "Lysosomal and mitochondrial NO levels (Lyso-NO, Mito-NO probes), MCF-7", "format": "cell-based, human", "details": "9e", "procedure": "as §1"}, "hERG potassium channels": {"molecular_target": "T1, hERG potassium channels (Homo sapiens, UniProt Q12809)", "T1 construct": "expressed in transfected cells; host or cells: CHO-hERG cells (CHO cells expressing hERG)", "T1 sequence (Q12809 whole entry)": "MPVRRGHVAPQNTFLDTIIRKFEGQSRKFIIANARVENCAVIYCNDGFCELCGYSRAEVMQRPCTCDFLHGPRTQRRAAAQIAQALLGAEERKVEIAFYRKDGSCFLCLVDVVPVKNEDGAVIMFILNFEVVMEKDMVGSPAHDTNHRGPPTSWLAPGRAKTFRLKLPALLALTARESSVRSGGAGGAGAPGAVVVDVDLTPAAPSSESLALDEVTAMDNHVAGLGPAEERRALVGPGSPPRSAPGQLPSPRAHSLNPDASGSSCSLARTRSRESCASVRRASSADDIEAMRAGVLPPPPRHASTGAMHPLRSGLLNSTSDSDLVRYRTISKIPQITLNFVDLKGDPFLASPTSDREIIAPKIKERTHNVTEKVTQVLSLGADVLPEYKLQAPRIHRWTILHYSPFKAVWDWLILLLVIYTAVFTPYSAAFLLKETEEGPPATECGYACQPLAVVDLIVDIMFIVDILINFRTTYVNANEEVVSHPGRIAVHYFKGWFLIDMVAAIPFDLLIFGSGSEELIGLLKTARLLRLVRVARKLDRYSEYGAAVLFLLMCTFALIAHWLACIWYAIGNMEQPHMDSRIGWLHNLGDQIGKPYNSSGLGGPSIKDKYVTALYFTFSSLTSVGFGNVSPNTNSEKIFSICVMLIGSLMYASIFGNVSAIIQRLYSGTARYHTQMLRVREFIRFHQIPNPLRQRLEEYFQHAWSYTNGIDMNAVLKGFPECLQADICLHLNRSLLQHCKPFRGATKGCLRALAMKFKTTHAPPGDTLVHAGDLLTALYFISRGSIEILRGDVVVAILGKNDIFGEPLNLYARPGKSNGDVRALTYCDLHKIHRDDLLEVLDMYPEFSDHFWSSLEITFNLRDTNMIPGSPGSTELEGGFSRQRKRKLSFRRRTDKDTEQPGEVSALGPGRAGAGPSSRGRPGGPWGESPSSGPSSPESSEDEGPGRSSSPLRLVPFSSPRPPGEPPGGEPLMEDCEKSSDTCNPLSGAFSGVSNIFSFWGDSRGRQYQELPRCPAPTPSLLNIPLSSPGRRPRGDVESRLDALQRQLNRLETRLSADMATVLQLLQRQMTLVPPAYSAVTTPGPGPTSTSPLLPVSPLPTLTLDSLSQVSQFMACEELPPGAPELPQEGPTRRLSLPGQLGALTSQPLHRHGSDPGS", "assay": "Inhibition of hERG potassium channels (QPatch patch clamp, CHO-hERG cells)", "format": "cell-based", "procedure": "CHO-hERG cells (2 × 10^6 cells/dish) were seeded in confocal dishes. The compound stock solution was diluted with DMSO to six concentrations: 40.00, 13.33, 4.44, 1.48, 0.49, and 0.16 μM, which was prepared by using the Bravo platform. Both single-cell high-resistance sealing and whole-cell mode formation were automatically performed by the QPatch system (Shanghai Institute of Materia Medica, Shanghai, China). Each concentration was tested on at least two cells (n ≥ 2)."}, "P-gp in MCF-7/ADR": {"test_system": "P-gp in MCF-7/ADR", "assay": "Rh-123 accumulation assay (flow cytometry)", "format": "cell-based, human", "details": "9e 20 nM, vs DMSO", "procedure": "Harvest the MCF-7/ADR cells and seed them into a 96-well plate (2 × 10^5 cells/well). Following overnight culture, cells were treated with 9e (10 and 20 nM) or DMSO (vehicle control) for 60 min. After aspiration of the medium, cells were washed thrice with PBS and subsequently incubated with Rh123 solution (1 μg/mL; Sigma-Aldrich) for 60 min. Subsequently, wash three times with PBS, then digest and centrifuge them (1000× g, 5 min). Resuspend the cells with 1 mL of PBS and centrifuge again (1000× g, 5 min). Finally, after resuspending the cells with 200 μL of PBS, the fluorescence of Rh123 was analyzed by flow cytometry (Beckman, Brea, CA, USA)."}}, "data": [{"smiles": "COc1ccc(CCC(=O)c2ccc(OCCOc3no[n+]([O-])c3S(=O)(=O)c3ccccc3)cc2OC)cc1", "note": "[Compound 9e, 4-(2-(3-methoxy-4-(3-(4-methoxyphenyl)propanoyl)phenoxy)ethoxy)-3-(phenylsulfonyl)-1,2,5-oxadiazole 2-oxide]", "values": [{"measurement": "Lyso-NO probe signal", "setting": "MCF-7/ADR [1]; 10 nM 9e, vs vehicle", "value": "significant rise"}, {"measurement": "Mito-NO probe signal", "setting": "MCF-7/ADR [1]; 9e, vs control", "value": "no difference"}, {"measurement": "inhibitory activity after NAC pretreatment", "setting": "MCF-7/ADR [2]; 10 nM 9e + 1250 μM NAC", "value": "completely lost its inhibitory activity"}, {"measurement": "cell survival rate with NO scavenger Carboxy-PTIO", "setting": "MCF-7/ADR [2]; 20 nM 9e + 100 μM Carboxy-PTIO", "value": 53.7, "unit": "%"}, {"measurement": "cells still inhibited with P-gp inhibitor tariquidar", "setting": "MCF-7/ADR [2]; 9e + 5 μM tariquidar", "value": 62, "unit": "%"}, {"measurement": "inhibition at 0.02 µM", "setting": "MCF-7/ADR [2]; Homo sapiens, NCI/ADR-RES, 9e 20 nM alone, read-out: proliferation inhibition rate", "value": 89, "unit": "%"}, {"measurement": "fluorescence intensity of LC3", "setting": "LC3 in MCF-7/ADR", "value": "significantly increased"}, {"measurement": "Lyso-NO and Mito-NO probe fluorescence intensity", "setting": "MCF-7", "value": "no increase in fluorescence intensity"}, {"measurement": "IC50", "setting": "hERG potassium channels", "value": "> 40", "unit": "µM"}, {"measurement": "Rh-123 accumulation (in words)", "setting": "P-gp in MCF-7/ADR", "value": "accumulated significantly"}]}]}
